From article PMC9078534 (RSC Advances, 2018)
Where a name gives a salt, the structure may show the parent alone. Read-outs that look alike come from different tables or passages of the source. Values belong to the molecule of their own block, whether it stands above or below them.

Legend:
[1] = Renal clearance (CLr) of SAL and PAH in hypoxic and normoxic rats; assay type: in vivo; details: rat, plasma and urine, iv
Method: The animal surgery was conducted as described in literature.[23,24] Briefly, the cannulae were inserted into rat right jugular veins, left femoral veins, and bladders after an i.m. injection of 90 mg kg^−1 ketamine and 9 mg kg^−1 xylazine. All surgical procedures were performed under anaesthesia and in a clean surgical room with sterilized instruments. […] Urine from the bladder was collected through the catheter into pre-weighed micro-centrifuge tubes and the volume of urine collected during each 30 min period was calculated by weight. To equilibrate and establish a steady rate of urine excretion, rats were continuously infused with warm saline solution containing mannitol (5%, w/v) for 1 h at a rate of 16 μl min^−1 through the femoral veins (n = 5 each group) using a Sage Instruments Syringe Pump (Cambridge, MA, USA). During the experiment, the rat was placed on a heating pad to maintain body temperature. […] After each blood sampling, an aliquot of 200 μl saline was infused into the jugular to replace the volume of blood taken.

[2] = male, SD, rat, in vivo
Source text: (§4) Briefly, rats were exposed to hypoxic condition (oxygen content of 9%) for 3 consecutive days to construct the model. Normoxic controls were kept in room air (21% O2) for 3 consecutive days. The concentrations of LDH, CS, and HIF-1α in rat plasma were monitored with the aid of commercial kit listed in ‘Material’ section for model validation.
(§5) Twenty male SD rats were randomly divided into hypoxic group (HYP) and normoxic group (NOR) with ten rats in each group. Following hypoxic and normoxic model construction, rats were prepared for surgery. […] Briefly, rats were anesthetized with an intramuscular dose of ketamine (90 mg kg^−1) and xylazine (9 mg kg^−1) followed by cannulation with a polythene tube (0.5 mm i.d., 1 mm, Portex Ltd., Hythe, Kent, England) in the right jugular vein. The rats were allowed to recover overnight and had free access to water and food. […] The blood samples (200 μl) were taken from the jugular vein catheter and were collected into the heparinized tubes at the following time points: 0, 5, 10, 30, 60, 120, 240, 360, 480, 720 and 1440 min after oral administration and 0, 2, 5, 10, 30, 60, 120, 240, 360, 480 min after intravenous administration, respectively. An aliquot of 200 μl sterile isotonic saline was given immediately to rats after blood sample collection for compensation of body fluid loss. The animals were sacrificed with pentobarbital sodium salt (200 mg kg^−1, i.p.) at the end of the experiment. The obtained blood samples were centrifuged at 11 300g for 5 min at 4 °C and the plasma samples (supernatant) was collected for UPLC-MS/MS analyses. Protein precipitation was adopted for samples preparation.
(§6) Pharmacokinetic parameters including the area under the curve (AUC) and elimination half-life (t1/2) were calculated by non-compartmental model. The peak plasma concentration (Cmax) and the time for reaching Cmax (Tmax) were obtained directly from the experimental data.

Caco-2 monolayers = test: Transport of SAL across normoxic and hypoxic Caco-2 monolayers (Papp); assay type: in vitro ADME, human
Method: (§1) The human colorectal adenocarcinoma cell line, Caco-2 cell, was obtained from Cell Resource Center, Institute of Basic Medical Sciences (CAMS). Caco-2 cells, a recognized cell model used for permeability study, were cultured in minimum essential medium (MEM) containing 10% fetal bovine serum, 1% nonessential amino acids, 100 U ml^−1 penicillin, and 100 μg ml^−1 streptomycin, and then were kept in a humidified incubator at 37 °C with 5% CO2. To obtain differentiated monolayers, Caco-2 cells were seeded in Transwell® chambers (12 mm, 0.4 μm pore size; Corning, MA, USA) at a density of 1 × 10^5 cells per wells and cultured for 21 days. TEER (trans-epithelial electrical resistance) was used to monitor the integrity of the monolayer. Monolayer with TEER above 600 Ω cm^2 was employed in the present study. Caco-2 cells grown in Transwell® at passage 32–45 were used for the experiment. After cultivation for 21 days, normoxic incubations were performed in a tissue culture incubator at 37 °C, 5% CO2, while hypoxic incubations were performed in an oxygen-control hypoxic glove box at 37 °C, 1% oxygen content for 24 h.[15] The enzyme activities of LDH, CS and the protein expression of HIF-1α were monitored for hypoxic model validation. The morphological study on hypoxic Caco-2 monolayer was performed with the aid of transmission electron microscopy (TEM) (JEM-2100F, Japan). The expression level of tight junction proteins (ZO-1) in Caco-2 cell under normoxic and hypoxic conditions was measured by western blotting.
(§2) According to the method published in Nature Protocols, the transport test was performed in Hank's balanced salt solution (HBSS) containing 5.56 mM glucose, 10 mM HEPES and 1.26 mM CaCl2.[16] Before experiment, the monolayers were washed twice with HBSS medium and pre-incubated for 30 min. […] Equal volume of the blank HBSS buffer was added back to the chambers after sampling to maintain a constant systemic volume. The collected samples were stored at −20 °C until UPLC-MS/MS analyses.
(§3) The Caco-2 monolayer was pre-incubated with phlorizin (100 μM) for 30 min before the transport experiment.

[3] = as above; assay type: in vitro ADME, human; details: human, SAL 10 μM
Method: as §1, §2, §3

[4] = Stability of SAL in samples during UPLC-MS/MS method validation; assay type: physicochemical
Method: To prepare the samples for calibration curves, 10 μl of IS working solution (containing 100 μg ml^−1 paracetamol) and 10 μl of analyte work solution was added to 100 μl of blank rat plasma. Approximately 300 μl methanol was then added to the above plasma sample for protein precipitation. After centrifuging the mixture at 11 300g for 10 min, the supernatant was collected followed by being evaporated to dryness under nitrogen at room temperature. The residue was reconstituted with 100 μl of methanol. After being centrifuged at 11 300g for 10 min, an aliquot of 5 μl supernatant was injected into the UPLC-MS/MS system for analyses. […] For all QC samples in rat biological matrices, the % RSD of both intra-day and inter-day precision was below 10.4%, and the accuracy was within the range of 85.4 to 100%, which met the criteria from FDA.

[5] = Protein binding of SAL in rat plasma by ultrafiltration; assay type: in vitro ADME; details: three spiking concentrations (100, 500, 1000 μg ml^−1), 37 °C, 30 min
Method: After incubation at 37 °C for 30 min, an aliquot of 500 μl plasma was added into the upper part of the centrifugal filter device (Amicon®, cutoff value: 10 kDa). The centrifuge was then conducted in a rate of 11 300g for 30 min at room temperature. SAL in the original sample and ultrafiltrate were determined by UPLC-MS/MS method.

[6] = cited from earlier work
in vivo = details: male, SD, rat
Source text: as §4, §5, §6

SULT2A1 = test: Kinetics of p-tyrosol sulfate formation from p-tyrosol in rat liver S9 fraction (RLS), sulfation by SULT2A1; assay type: in vitro ADME
Method: The formation rate of p-tyrosol sulfate could therefore serve as an indicator for the hepatic metabolic rate of SAL. […] The incubation was carried out at 37 °C and terminated by the addition of an equal volume of ice-cold methanol containing 5 μM IS.[18] The content of p-tyrosol sulfate was determined by the UPLC-MS/MS described above. […] All the experiments were carried out in triplicate.
GraphPad Prism® was employed to analyze enzyme kinetic data.

CBG = test system: CBG; design: method as in doi:10.1021/symposium; details: other phenolic glycosides; cited from earlier work
[7] = substrate: OC[C@H]1O[C@@H](OCCc2ccc(O)cc2)[C@H](O)[C@@H](O)[C@@H]1O; test: cells, lysate or membranes named; details: pH 7.4, 37.0 °C
[8] = Caco-2, hypoxic Caco-2 monolayer model (1% O2, 24 h)
[9] = Caco-2, normoxic Caco-2 monolayer model
[10] = background statement, no reference given

- CL renal ([1]; 30 mg/kg, hypoxic rats, PAH 30 mg kg^−1 i.v. bolus): 0.818 mL/min/kg
- CL renal ([1]; 30 mg/kg, normoxic rats, PAH 30 mg kg^−1 i.v. bolus): 3.28 mL/min/kg
Molecule: Nc1ccc(C(=O)NCC(=O)O)cc1 [PAH, p-aminohippuric acid, reference compound]

- MRT(0→t) ([2]; iv, 444 ug/kg): 70.9 ± 7.9 min
- t1/2 ([2]; iv, 444 ug/kg): 97.5 ± 12.5 min
- Cmax ([2]; po, 4.44 mg/kg): 1835.4 ± 690.5 ng/mL
- Tmax ([2]; po, 4.44 mg/kg): 48.0 ± 16.4 min
- ratio between Papp(A→B) and Papp(B→A) (Caco-2 monolayers; hypoxic Caco-2 monolayer model): 2.53
- ratio between Papp(A→B) and Papp(B→A) (Caco-2 monolayers; normoxic Caco-2 monolayer model): 10.0
- ratio between Papp(A→B) and Papp(B→A) (Caco-2 monolayers; normoxic Caco-2 monolayer model, after addition of SGLT1 inhibitor (phlorizin 100 μM)): 2.24
- Papp A→B at 180 min, 10 μM [3, 8]: 1.77 ± 0.18 ×10⁻⁶ cm/s
- Papp B→A at 180 min, 10 μM [3, 8]: 0.7 ± 0.2 ×10⁻⁶ cm/s
- Papp A→B at 180 min, 10 μM [3, 9]: 0.88 ± 0.11 ×10⁻⁶ cm/s
- Papp B→A at 180 min, 10 μM [3, 9]: 0.088 ± 0.02 ×10⁻⁶ cm/s
- stability ([4]; auto-sampler (4 °C) for 24 h): stable
- stability ([4]; −80 °C for 30 days): stable
- plasma binding ratio, hypoxic versus normoxic rats [5]: similar
- MRT last (in vivo; iv, 444 ug/kg, MRT(0→t)): 48.3 min
- half-life (in vivo; iv, 444 ug/kg, t1/2): 67.2 ± 11.8 min
- Cmax (in vivo; po, 4.44 mg/kg, Cmax): 2070 ± 264 ng/mL
- Tmax (in vivo; po, 4.44 mg/kg, Tmax): 36 min
- CL renal ([1]; 444 ug/kg, hypoxic rats, SAL 444 μg kg^−1 i.v. bolus): 0.497 mL/min/kg
- CL renal ([1]; 444 ug/kg, normoxic rats, SAL 444 μg kg^−1 i.v. bolus): 1.77 mL/min/kg
Molecule: OC[C@H]1O[C@@H](OCCc2ccc(O)cc2)[C@H](O)[C@@H](O)[C@@H]1O [SAL, salidroside]
- share of parent compound that undergoes deglycosylation and sulfation ([6]; after oral administration to rats, literature and preliminary studies): more than 50%
- share of administered SAL excreted from urine as parent compound [6, 10]: about 20%
- share of eliminated SAL accounted for by renal clearance [6, 10]: no more than 20%

Molecule: O=S(=O)(O)Oc1ccc(CCO)cc1 [p-Tyrosol sulfate, p-tyrosol sulfate]
- share of total metabolites of SAL ([6]; rats, systemic circulation): over 50%

- Clint of SULT2A1 (SULT2A1; hypoxic RLS): 10.4 ± 2.7 µL/min/mg
- Clint of SULT2A1 (SULT2A1; normoxic RLS): 5.8 ± 1.2 µL/min/mg
Molecule: OCCc1ccc(O)cc1 [p-tyrosol]
- Vmax of SULT2A1 (p-tyrosol sulfate formation from p-tyrosol) (SULT2A1; hypoxic RLS): 78.3 ± 11.2 nmol/min/mg
- Vmax of SULT2A1 (p-tyrosol sulfate formation from p-tyrosol) (SULT2A1; normoxic RLS): 23.3 ± 4.4 nmol/min/mg

Molecule: daidzein 4-glycoside
- Km (CBG): 50 µM

Molecule: quercetin 4-glycoside
- Km (CBG): 65 µM

B1: cytosolic β-glucosidase (CBG) (Rattus norvegicus) (protein)
chain: MAFPVGFGWGAATAAYQVEGGWDADGRGPCVWDTFTHQGGERVFENQTGDVACGSYTLWEEDLKCIKQLGLTHYRFSLSWSRLLPDGTTGFINQKGIDYYNKIIDDLLKNGVTPIVAIYHFDLPQALEDLGGWLSEAIVEAFDKYAQFCFSTFGDRVKQWLTINEPNILALLAYDMGIFAPGVPHIGIGGYQAAHNLIKAHARSWHSYDSLFREEQKGFVSLSLFFCWLEPADPNSEIDQEATKRAINFHLDFFAKPIFIDGDYPDVVKSQVASMSKKQGYPSSRLPEFTEEEKKMIKGTADFFAVQYYTTRLVRHQENKKRELGFLQDVEIEFFPNPFWKNVGWIYVVPWGIRKLLKYIKDTYNNPVIYITENGFPQCDPPSLDDTQRWEYFRQTFQELFKAIHVDDVNLQLYCAWSLLDNFEWNNGYSRRFGLFHVDFEDPARPRTPYRSAKEYAKVIRDNGLAGAM
- Km ([7]; other: hypoxic RLS): 19.5 ± 3.1 µM
- Km ([7]; other: normoxic RLS): 5.2 ± 0.6 µM
